Measured values taken from US8361765B2, “Enzymic method for the enantioselective reduction of keto compounds” (IEP GmbH, priority 2001, dated 2013).

Assays:
[1] = tested on: alcohol dehydrogenase from Lactobacillus minor; assay: Spectrum of substrates; assay type: biochemical; conditions: 10 mM keto compound as substrate, 0.19 mM NADPH, pH 7.0; activity with ethyl 4-chloro-3-oxo-butanoate set to 100%
Protocol: Furthermore, substrates other than ethyl 4-chloro-3-oxo-butanoate were also used in the enzymic assay mixture. For this purpose, the following assay mixture was used: • 970 μl of triethanolamine buffer (100 mM, pH=7.0, 1 mM MgCl2 containing 10 mM keto compound) • 20 μl of NADPH (0.19 mM in assay mixture) • 10 μl of enzyme (1:100)
The activity determined with ethyl 4-chloro-3-oxo-butanoate was set to 100% and the enzyme activities of the other substrates were related to this value.

[2] = tested on: L. minor alcohol dehydrogenase; assay: Enzyme stability in organic solvents; assay type: biochemical, Lactobacillus minor; conditions: for Enzyme activity relative to starting value, t = 2 h / Enzyme activity relative to starting value, t = 8 h / Enzyme activity relative to starting value, t = 24 h / Enzyme activity relative to starting value, t = 48 h: room temperature; for action of the solvent on the alcohol dehydrogenase (in words): Table 7
Protocol: The stability of the enzyme when contacted with organic solvents was studied by diluting L. minor alcohol dehydrogenase 1:100 in the solvent mixtures listed, followed by incubation at room temperature (for organic solvents not miscible with water, the dilution refers to the aqueous phase). Continuous mixing of both phases was ensured (shaker, 200 rpm). 10 μl of the enzyme solution were then used in the standard assay mixture. Here too, the starting value was set to 100% after dilution in the buffer (triethanolamine buffer 100 mM, pH=7.0, 1 mM MgCl2), with all other values being related to this value.

[3] = octanol/water; cited from earlier work
[4] = 10% water-miscible solvent in buffer
[5] = 20% water-miscible solvent in buffer
[6] = 20% solvent not miscible with water, two phases shaken 200 rpm

Row | Compound | action of the solvent on the alcohol dehydrogenase (in words) [2] | logP [3] | Enzyme activity relative to starting value, t = 2 h [2, 6] [%] | Enzyme activity relative to starting value, t = 8 h [2, 6] [%] | Enzyme activity relative to starting value, t = 24 h [2, 6] [%] | Enzyme activity relative to starting value, t = 48 h [2, 6] [%] | further results
1 | CCCCCCC(C)=O [2-Octanone] |  |  |  |  |  |  | Activity in % (n = 2) [1]: 90.8 ± 1.2%
2 | C[S+](C)[O-] [DMSO, dimethyl sulfoxide] | activating and, respectively, stabilizing action |  |  |  |  |  | Enzyme activity relative to starting value, t = 2 h [2, 4]: 73%; Enzyme activity relative to starting value, t = 8 h [2, 4]: 54%; Enzyme activity relative to starting value, t = 24 h [2, 4]: 60%; Enzyme activity relative to starting value, t = 48 h [2, 4]: 40%; Enzyme activity relative to starting value, t = 2 h [2, 5]: 73%; Enzyme activity relative to starting value, t = 8 h [2, 5]: 54%; Enzyme activity relative to starting value, t = 24 h [2, 5]: 57%; Enzyme activity relative to starting value, t = 48 h [2, 5]: 40%
3 | CCOC(=O)C(=O)CCc1ccccc1 [Ethyl 2-oxo-4-phenylbutyrate] |  |  |  |  |  |  | Activity in % (n = 2) [1]: 62.7 ± 4.8%
4 | CCOC(=O)CC(=O)CCl [Ethyl 4-chloro-3-oxo-butanoate] |  |  |  |  |  |  | Activity in % (n = 2) [1]: 100%
5 | CCOC(=O)C(C)=O [Ethyl pyruvate] |  |  |  |  |  |  | Activity in % (n = 2) [1]: 192.3 ± 11.5%
6 | COC(=O)CC(C)=O [Methyl acetoacetate] |  |  |  |  |  |  | Activity in % (n = 2) [1]: 120 ± 7.7%
7 | CCOCC [diethyl ether] |  | 0.85 | 53 | 42 | 37 | 23 | 
8 | CC(C)OC(C)C [diisopropyl ether] |  | 1.55 | 100 | 57 | 41 | 29 | 
9 | CCOC(C)=O [ethyl acetate] |  |  | 87 | 50 | 10 | 8 | 
10 | OCC(O)CO [glycerol] | activating and, respectively, stabilizing action | −3 |  |  |  |  | Enzyme activity relative to starting value, t = 2 h [2, 4]: 120%; Enzyme activity relative to starting value, t = 8 h [2, 4]: 64%; Enzyme activity relative to starting value, t = 24 h [2, 4]: 62%; Enzyme activity relative to starting value, t = 48 h [2, 4]: 28%; Enzyme activity relative to starting value, t = 2 h [2, 5]: 120%; Enzyme activity relative to starting value, t = 8 h [2, 5]: 100%; Enzyme activity relative to starting value, t = 24 h [2, 5]: 100%; Enzyme activity relative to starting value, t = 48 h [2, 5]: 104%
11 | CCCCCCC [heptane] | do not exhibit this stabilizing action | 4 | 51 | 49 | 7 | 6 | 
12 | CCCCCC [hexane] | do not exhibit this stabilizing action |  | 80 | 39 | 2 | 5 | 
13 | CC(C)O [isopropanol] | inactivating action |  |  |  |  |  | 
14 | CCCCCCCC [octane] | do not exhibit this stabilizing action |  | 87 | 47 | 2 | 1 | 
15 | CCCCC [pentane] | do not exhibit this stabilizing action | 3 | 74 | 55 | 7 | 6 | 
16 | OC[C@@H](O)[C@@H](O)[C@H](O)[C@@H](O)CO [sorbitol] | activating and, respectively, stabilizing action |  |  |  |  |  | Enzyme activity relative to starting value, t = 2 h ([2]; 1M in buffer): 93%; Enzyme activity relative to starting value, t = 8 h ([2]; 1M in buffer): 74%; Enzyme activity relative to starting value, t = 24 h ([2]; 1M in buffer): 60%; Enzyme activity relative to starting value, t = 48 h ([2]; 1M in buffer): 6%
17 | COC(C)(C)C [tert-butyl methyl ether] |  | 1.21 | 67 | 51 | 38 | 24 | 
